Here are results for 1 molecule from patent US8673949B2 (Bristol-Myers Squibb Company, priority 2008, dated 2014).

Structures are written as SMILES.

By half-life is commonly meant the time in which the quantity being followed falls by half. Read a low half-life as fast loss.

The nature of data set [1]: Brain half-life of epothilone D in rats. The class given is in vivo. The conditions noted are these: 1 mg/kg, Rat, IV, 1 mpk. The text has this: To calculate an accurate brain half-life for a long half-life compound, measurements need to be taken for several half lives after a single dose.
Data set [2] deals with neurofibrillary tangles. Put plainly: Gallyas silver staining for neurofibrillary tangles in Tg4510 mice. Format: in vivo, mouse. The conditions noted are these: cortex and hippocampus, vs vehicle. As to the method:
Mice were euthanized by cervical dislocation at 5. 5 months followed by decapitation. Brains were immediately removed and divided down the midline into two hemispheres. The right hemisphere was placed into 20 mL of 4% paraformaldehyde (prepared fresh on the day of sacrifice) and stored overnight at 4° C. The following day, the brains were transferred to a tube containing 20 mL TBS (pH 7.4, 20 mM TRIS, 100 mM NaCl) and then stored at 4° C. until processing. Right hemispheres were embedded in paraffin, sectioned at 5 microns, and mounted on positively charged glass slides. The slides were dried overnight in a 60° C. oven and stored at room temperature until stained. The left hemispheres were frozen (within 2 minutes) on dry ice.
The Gallyas staining method was used to detect silver-positive neurofibrillary tangles and dystrophic neurites. Paraffin-embedded thin sections (5 microns) mounted on glass slides were deparaffinized and rehydrated via serial incubation in xylene (two times for 10 minutes each), 100% ethanol (two times for 10 minutes each), 95% MeOH/5% H2O2 (30 minutes), 95% ethanol (two times for 5 minutes each), 80% ethanol (two times for 5 minutes each), 50% ethanol (two times for 5 minutes each), and water (two times for 5 minutes each). […]

With `C/C1=C/C[C@@H](/C(C)=C/c2csc(C)n2)OC(=O)C[C@H](O)C(C)(C)C(=O)[C@H](C)[C@@H](O)[C@@H](C)CCC1` [Epothilone D, epothilone D], the half-life in data set [1] is 31 h. In addition, the “Gallyas silver staining: neurofibrillary tangles” value in data set [2] (1 mpk IP weekly) is recorded as “much lower levels of neurofibrillary tangles than did vehicle-treated mice”; in data set [2] (10 mpk IP weekly) it was “trend toward improvement”.
